Patent US20220119354A1, “DIAMINO-SUBSTITUTED PYRIDINES AND PYRIMIDINES AS HERBICIDES” (FMC Corporation, priority 2019, published 2022)

Experiments:
Type in all cases: in vivo
[1] = system: ryegrass, Italian (Lolium multiflorum); assay: Test A preemergence, Italian ryegrass; settings: 0 to 100 scale, 0 is no effect, 100 is complete control
In short: (§1)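 Ratings reflect visual comparison with untreated controls roughly 10 d after greenhouse application, 0 meaning no effect and 100 complete control. Treatment was by directed soil spray at planting or by spray onto one- to two-leaf plants in loam/sand pots.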

kochia (Kochia scoparia) [2] = assay: Test A postemergence, kochia; settings: 0 to 100 scale, 0 no effect, 100 complete control
In short: as §1

[3] = system: pigweed (Amaranthus retroflexus); assay: Test A postemergence, pigweed; settings: 0 to 100 scale, 0 no effect, 100 complete control
In short: as §1

[4] = system: wheat (Triticum aestivum); assay: Test A postemergence, wheat; settings: 0 to 100 scale, 0 no effect, 100 complete control
In short: as §1

[5] = system: pigweed (Amaranthus retroflexus); assay: Test A preemergence, pigweed; settings: 0 to 100 scale, 0 is no effect, 100 is complete control
In short: as §1

[6] = system: blackgrass (Alopecurus myosuroides); assay: Test A postemergence, blackgrass; settings: 0 to 100 scale, 0 no effect, 100 complete control
In short: as §1

[7] = system: foxtail, giant (Setaria faberii); assay: Test A preemergence, giant foxtail; settings: 0 to 100 scale, 0 is no effect, 100 is complete control
In short: as §1

[8] = system: ryegrass, Italian (Lolium multiflorum); assay: Test A postemergence, Italian ryegrass; settings: 0 to 100 scale, 0 no effect, 100 complete control
In short: as §1

kochia (Kochia scoparia) [9] = assay: Test A preemergence, kochia; settings: 0 to 100 scale, 0 is no effect, 100 is complete control
In short: as §1

rice (Oryza sativa) = assay: Test B flooded paddy test, rice; settings: Flood, 250 g ai/ha, applied to paddy water, 2-leaf stage, visual evaluation after 13 to 15 d
In short: (§2)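 Pots flooded to 3 cm above the soil when treated, with test compound added straight to the water and the flood maintained. Treated plants were at the 2-leaf stage and stayed 13–15 d in greenhouse. Response versus untreated controls scored visually from 0 (no effect) to 100 (complete control).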

corn (Zea mays) = assay: Test A postemergence, corn; settings: 0 to 100 scale, 0 no effect, 100 complete control
In short: as §1

[10] = system: ragweed (common ragweed, Ambrosia elatior); assay: Test A postemergence, ragweed; settings: 0 to 100 scale, 0 no effect, 100 complete control
In short: as §1

[11] = system: ragweed (common ragweed, Ambrosia elatior); assay: Test A preemergence, ragweed; settings: 0 to 100 scale, 0 is no effect, 100 is complete control
In short: as §1

[12] = system: foxtail, giant (Setaria faberii); assay: Test A postemergence, giant foxtail; settings: 0 to 100 scale, 0 no effect, 100 complete control
In short: as §1

[13] = system: galium (catchweed bedstraw, Galium aparine); assay: Test A postemergence, galium; settings: 0 to 100 scale, 0 no effect, 100 complete control
In short: as §1

[14] = system: ducksalad (Heteranthera limosa); assay: Test B flooded paddy test, ducksalad; settings: Flood, 250 g ai/ha, applied to paddy water, 2-leaf stage, visual evaluation after 13 to 15 d
In short: as §2

[15] = system: barnyardgrass (Echinochloa crus-galli); assay: Test A preemergence, barnyardgrass; settings: 0 to 100 scale, 0 is no effect, 100 is complete control
In short: as §1

[16] = system: barnyardgrass (Echinochloa crus-galli); assay: Test A postemergence, barnyardgrass; settings: 0 to 100 scale, 0 no effect, 100 complete control
In short: as §1

[17] = system: barnyardgrass (Echinochloa crus-galli); assay: Test B flooded paddy test, barnyardgrass; settings: Flood, 250 g ai/ha, applied to paddy water, 2-leaf stage, visual evaluation after 13 to 15 d
In short: as §2

[18] = system: sedge, umbrella (small-flower umbrella sedge, Cyperus difformis); assay: Test B flooded paddy test, umbrella sedge; settings: Flood, 250 g ai/ha, applied to paddy water, 2-leaf stage, visual evaluation after 13 to 15 d
In short: as §2

| Structure (SMILES) | Ryegrass, Italian plant response rating ([1]; 125 g ai/ha) | Ryegrass, Italian plant response rating ([1]; 500 g ai/ha) | Plant response rating, Kochia (kochia (Kochia scoparia) [2]; 125 g ai/ha) | Plant response rating, Kochia (kochia (Kochia scoparia) [2]; 500 g ai/ha) | Plant response rating, Pigweed ([3]; 125 g ai/ha) | Plant response rating, Pigweed ([3]; 500 g ai/ha) | Plant response rating, Wheat ([4]; 125 g ai/ha) | Plant response rating, Wheat ([4]; 500 g ai/ha) | Pigweed plant response rating ([5]; 125 g ai/ha) | Pigweed plant response rating ([5]; 500 g ai/ha) | Plant response rating, Blackgrass ([6]; 125 g ai/ha) | Plant response rating, Blackgrass ([6]; 500 g ai/ha) | Foxtail, Giant plant response rating ([7]; 125 g ai/ha) | Foxtail, Giant plant response rating ([7]; 500 g ai/ha) | Plant response rating, Ryegrass, Italian ([8]; 125 g ai/ha) | Plant response rating, Ryegrass, Italian ([8]; 500 g ai/ha) | Kochia plant response rating (kochia (Kochia scoparia) [9]; 125 g ai/ha) | Kochia plant response rating (kochia (Kochia scoparia) [9]; 500 g ai/ha) | Plant response rating, Rice (0 to 100 scale, 0 is no effect, 100 is complete control) (rice (Oryza sativa)) | Plant response rating, Corn (corn (Zea mays); 125 g ai/ha) | further results |
| --- | --- | --- | --- | --- | --- | --- | --- | --- | --- | --- | --- | --- | --- | --- | --- | --- | --- | --- | --- | --- | --- |
| C[C@H](Nc1ncc(C(F)(F)F)c(N)n1)c1coc2ccc(F)cc12 [Compound 56] | 0 | 0 | 0 | 40 | 20 | 60 | 0 | 0 | 0 | 30 | 0 | 0 | 0 | 0 | 0 | 0 | 0 | 0 | 0 | 0 | Plant response rating, Corn (corn (Zea mays); 500 g ai/ha): 10; Plant response rating, Ragweed ([10]; 125 g ai/ha): 0; Plant response rating, Ragweed ([10]; 500 g ai/ha): 30; Ragweed plant response rating ([11]; 125 g ai/ha): 20; Ragweed plant response rating ([11]; 500 g ai/ha): 80; Plant response rating, Foxtail, Giant ([12]; 125 g ai/ha): 10; Plant response rating, Foxtail, Giant ([12]; 500 g ai/ha): 20; Plant response rating, Galium ([13]; 125 g ai/ha): 0; Plant response rating, Galium ([13]; 500 g ai/ha): 0; Plant response rating, Ducksalad (0 to 100 scale, 0 is no effect, 100 is complete control) [14]: 0; Barnyardgrass plant response rating ([15]; 125 g ai/ha): 70; Barnyardgrass plant response rating ([15]; 500 g ai/ha): 70; Plant response rating, Barnyardgrass ([16]; 125 g ai/ha): 50; Plant response rating, Barnyardgrass ([16]; 500 g ai/ha): 30; Plant response rating, Barnyardgrass (0 to 100 scale, 0 is no effect, 100 is complete control) [17]: 0; Plant response rating, Sedge, Umbrella (0 to 100 scale, 0 is no effect, 100 is complete control) [18]: 0 |
| CC(=O)c1cnc(NC(C)c2cc3ccccc3s2)nc1N (stereo not drawn) [Compound 57] | 20 | 50 | 0 | 60 | 60 | 80 | 0 | 20 | 30 | 100 | 0 | 10 | 30 | 90 | 0 | 60 | 0 | 60 | 0 | 0 | Plant response rating, Corn (corn (Zea mays); 500 g ai/ha): 20; Plant response rating, Ragweed ([10]; 125 g ai/ha): 40; Plant response rating, Ragweed ([10]; 500 g ai/ha): 70; Ragweed plant response rating ([11]; 125 g ai/ha): 60; Ragweed plant response rating ([11]; 500 g ai/ha): 100; Plant response rating, Foxtail, Giant ([12]; 125 g ai/ha): 0; Plant response rating, Foxtail, Giant ([12]; 500 g ai/ha): 50; Plant response rating, Galium ([13]; 125 g ai/ha): 60; Plant response rating, Galium ([13]; 500 g ai/ha): 80; Plant response rating, Ducksalad (0 to 100 scale, 0 is no effect, 100 is complete control) [14]: 30; Barnyardgrass plant response rating ([15]; 125 g ai/ha): 0; Barnyardgrass plant response rating ([15]; 500 g ai/ha): 70; Plant response rating, Barnyardgrass ([16]; 125 g ai/ha): 0; Plant response rating, Barnyardgrass ([16]; 500 g ai/ha): 70; Plant response rating, Barnyardgrass (0 to 100 scale, 0 is no effect, 100 is complete control) [17]: 0; Plant response rating, Sedge, Umbrella (0 to 100 scale, 0 is no effect, 100 is complete control) [18]: 80 |
| C[C@@H](Nc1nc(N)c(C(F)(F)F)c(C(F)(F)F)n1)c1cc2ccccc2s1 [Compound 59] | 0 | 0 | 50 | 70 | 60 | 80 | 0 | 0 | 30 | 80 | 0 | 0 | 0 | 30 | 0 | 0 | 70 | 80 | 0 | 0 | Plant response rating, Corn (corn (Zea mays); 500 g ai/ha): 0; Plant response rating, Ragweed ([10]; 125 g ai/ha): 0; Plant response rating, Ragweed ([10]; 500 g ai/ha): 0; Ragweed plant response rating ([11]; 125 g ai/ha): 0; Ragweed plant response rating ([11]; 500 g ai/ha): 30; Plant response rating, Foxtail, Giant ([12]; 125 g ai/ha): 0; Plant response rating, Foxtail, Giant ([12]; 500 g ai/ha): 0; Plant response rating, Galium ([13]; 125 g ai/ha): 20; Plant response rating, Galium ([13]; 500 g ai/ha): 20; Plant response rating, Ducksalad (0 to 100 scale, 0 is no effect, 100 is complete control) [14]: 0; Barnyardgrass plant response rating ([15]; 125 g ai/ha): 0; Barnyardgrass plant response rating ([15]; 500 g ai/ha): 0; Plant response rating, Barnyardgrass ([16]; 125 g ai/ha): 0; Plant response rating, Barnyardgrass ([16]; 500 g ai/ha): 0; Plant response rating, Barnyardgrass (0 to 100 scale, 0 is no effect, 100 is complete control) [17]: 0; Plant response rating, Sedge, Umbrella (0 to 100 scale, 0 is no effect, 100 is complete control) [18]: 0 |
